# What was measured:
# [1] = mouse and rat; GSH conjugates; cited from earlier work
# [2] = mouse, in vivo; cited from earlier work
# [3] = 37° C.; cited from earlier work
# [4] = longer than m-AMSA; cited from earlier work
# [5] = test system: leukemia and several solid tumors; conditions: against growth of leukemia and several solid tumors, in vitro and in vivo; cited from earlier work
# [6] = test system: murine leukemia and solid tumors (a mammary adenocarcinoma, B-16 melanoma and Lewis lung carcinoma); conditions: cited from earlier work
# [7] = test system: HL-60 cells; assay: in vitro cytotoxicity against growth of human leukemic HL-60 cells; format: cell-based; conditions: read-out: IC50 for cell growth inhibition, HL-60
# Description: (§1) The in vitro cytotoxicity of the N-[3-(acridin-9-yl)amino-5-hydroxymethyl]phenylcarbamate derivatives of the invention against growth of human leukemic HL-60 cells and 833K tumor cells, and the chemotherapeutic effects of ethyl N-[3-(acridin-9-yl)amino-5-hydroxymethyl]phenylcarbamate on Sarcoma 180 and Lewis lung carcinoma tumor bearing B6 D2 F1 mice were evaluated. The compound 3-(acridin-9-yl)amino-5-hydroxymethylaniline (AHMA) was also evaluated for comparison.
# (§2) The in vitro cytotoxicity against growth of human
# (§3) leukemic HL-60 cells and 833K tumor cells.
# [8] = test system: 833K tumor cells; assay: in vitro cytotoxicity against growth of 833K tumor cells; format: cell-based; conditions: Homo sapiens, read-out: IC50 for cell growth inhibition, 833K
# Description: as §1, §2, §3
# [9] = test system: Sarcoma 180; assay: chemotherapeutic effect on Sarcoma 180 tumor bearing B6 D2 F1 mice; format: in vivo; conditions: for Average Tumor Volume (T/C), Day 7 / Average Weight Change, Day 7: QD × 5, day 7
# Description: Sarcoma 180 (3 × 10^6 cells) innoculated subcutaneously
# (s.c.) on day 0. Treatment started on day 1, peritoneal injection (i.p.),
# [10] = test system: Lewis lung carcinoma; assay: chemotherapeutic effect on Lewis lung carcinoma tumor bearing B6 D2 F1 mice; format: in vivo; conditions: for Average Weight Change, Day 7 / Average Weight Change, Day 10: mouse, in vivo, ip
# Description: as §1
# The chemotherapeutic effects on Sarcoma 180 and
# Lewis lung carcinoma tumor bearing B6 D2 F1 mice.^a […]
# carcinoma (4 × […] cells) inoculated s.c. on day (-2).
# Treatment started on day 1, i.p., QD × 5. Control had 4 mice and
# each dose had 3 mice. Tumor sizes were evaluated on day 7 and day 10.
# [11] = Lewis lung carcinoma, 3.0 mg/kg i.p., QD × 5
# [12] = Lewis lung carcinoma, 6.0 mg/kg i.p., QD × 5
smiles,measurement,setting,value
"COc1cc(NS(C)(=O)=O)ccc1Nc1c2ccccc2nc2ccccc12 [m-AMSA, 4'-(9-acridinylamino)methanesulfon-m-anisidine]",major biliary metabolites,[1],"the major biliary metabolites of this agent were the 5'- and 6'-glutathione (GSH) conjugates, with no C9-GSH conjugate being found"
same,dose excreted as the glutathione conjugate in the bile,[2],More than 50%
same,half-life in the presence of fresh mouse blood,[3],ca. 30 min
"Nc1cc(CO)cc(Nc2c3ccccc3nc3ccccc23)c1 [compound 1, 3-(acridin-9-yl)amino-5-hydroxymethylaniline]",plasma half-life,[4],1.5 h
same,antitumor activity,[5],potent antitumor activity against growth of leukemia and several solid tumors both in vitro and in vivo with long half-life
same,toxicity toward the host compared with m-AMSA and VP-16,"[6]; mouse, in vivo",less toxic toward the host
same,antitumor efficacy compared with m-AMSA and VP-16,[6]; murine leukemia and solid tumors,"greater efficacy against murine leukemia and solid tumors (a mammary adenocarcinoma, B-16 melanoma and Lewis lung carcinoma) than m-AMSA and VP-16"
same,IC50,[7],25 nM
"CNC(=O)c1cccc2c(Nc3cc(N)cc(CO)c3)c3cccc(C)c3nc12 [compound 4, 3-(5-methyl-4-methylamino-carbonylacridin-9-yl)amino-5-hydroxymethylaniline]",IC50,[8],244 nM
same,IC50,[7],144 nM
"CCOC(=O)Nc1cc(CO)cc(Nc2c3cccc(C)c3nc3c(C(=O)NC)cccc23)c1 [compound 5, ethyl N-[3-(4-methylaminocarbonyl-5-methylacridin-9-yl)amino-5-hydroxymethyl]phenylcarbamate]",IC50,[8],34 nM
same,IC50,[7],83 nM
"CC(C)COC(=O)Nc1cc(CO)cc(Nc2c3ccccc3nc3ccccc23)c1 [compound 3, i-butyl N-[3-(acridin-9-yl)amino-5-hydroxymethyl]phenylcarbamate]",IC50,[8],21 nM
same,IC50,[7],18 nM
CNC(=O)c1cccc2c(Nc3ccc(NS(C)(=O)=O)cc3OC)c3cccc(C)c3nc12 [CI-921],metabolites detected in addition to the 5'- and 6'-GSH conjugates,[2],"two other metabolites, namely C9-GSH and the 4-hydroxymethyl derivatives of CI-921, were detected"
"CCOC(=O)Nc1cc(CO)cc(Nc2c3ccccc3nc3ccccc23)c1 [compound 2, ethyl N-[3-(acridin-9-yl)amino-5-hydroxymethyl]phenylcarbamate]","Average Tumor Volume (T/C), Day 7",[9]; 3.0 mg/kg i.p.,1.24
same,"Average Weight Change, Day 7",[9]; 3.0 mg/kg i.p.,-2.0 gm
same,"Average Tumor Volume (T/C), Day 10","[9]; 3.0 mg/kg i.p., QD × 5, day 10",1.21
same,"Average Weight Change, Day 10","[9]; 3.0 mg/kg i.p., QD × 5, day 10",-0.7 gm
same,"Average Tumor Volume (T/C), Day 7",[9]; 5.0 mg/kg i.p.,0.06
same,"Average Weight Change, Day 7",[9]; 5.0 mg/kg i.p.,-2.6 gm
same,"Average Tumor Volume (T/C), Day 10","[9]; 5.0 mg/kg i.p., QD × 5, day 10",0.63
same,"Average Weight Change, Day 10","[9]; 5.0 mg/kg i.p., QD × 5, day 10",+1.0 gm
same,"Average Tumor Volume (T/C), Day 7",[9]; 7.0 mg/kg i.p.,0.22
same,"Average Weight Change, Day 7",[9]; 7.0 mg/kg i.p.,-3.4 gm
same,"Average Tumor Volume (T/C), Day 10","[9]; 7.0 mg/kg i.p., QD × 5, day 10",< 0.01
same,"Average Weight Change, Day 10","[9]; 7.0 mg/kg i.p., QD × 5, day 10",-0.1 gm
same,Tumor detectability (footnote b),"[9]; 7.0 mg/kg i.p., QD × 5, day 10",Tumor not detectable
same,"Average Tumor Volume (T/C), Day 7",[10]; [11],0.8
same,"Average Tumor Volume (T/C), Day 10",[10]; [11],0.63
same,"Average Tumor Volume (T/C), Day 7",[10]; [12],0.44
same,"Average Tumor Volume (T/C), Day 10",[10]; [12],0.37
same,Mortality (footnote c),"[10]; Lewis lung carcinoma, 8.0 mg/kg i.p., QD × 5, 3 mice",One mouse died on day 8 and two mice died on day 9
same,"Average Tumor Volume (T/C), Day 7","[10]; Lewis lung carcinoma, 8.0 mg/kg i.p., QD × 5",0.21
same,"Average Weight Change, Day 7",[10]; 3 mg/kg,-2.3 gm
same,"Average Weight Change, Day 10",[10]; 3 mg/kg,-1.3 gm
same,"Average Weight Change, Day 7",[10]; 6 mg/kg,-3 gm
same,"Average Weight Change, Day 10",[10]; 6 mg/kg,-2.6 gm
same,"Average Weight Change, Day 7",[10]; 8 mg/kg,-3.6 gm
same,IC50,[8],20 nM
same,IC50,[7],16 nM
